Data reported in US4415566A, “Cephalosporin derivatives” (Boehringer Ingelheim GmbH, priority 1979, dated 1983).
In brackets after ≈: the same amount, converted by molar mass. Read-outs that look alike come from different tables or passages of the source.

Experiments:
[1] = test system: Staphylococcus aureus SG 511; assay: Serial dilution test in the microtiter system (MIC), S. aureus SG 511; assay type: cell-based; settings: SG511, Table IV, S. aureus SG 511, 37° C., 18-20 hours, read-out: MIC
Experimental: (§1) These tests were performed according to the method of the serial dilution test in the microtiter system. The effect of the substances on bacteriostasis was examined in a fluid medium. […] A nutrient medium of the following composition was used. 10 gm of peptone, 8 gm of meat extract-oxoid, 3 gm of sodium chloride, 2 gm of sec. sodium phosphate were diluted with distilled water to […] (pH 7.2-7.4). Only in the test against streptococci 1% of glucose was added. The age of the primary cultures was about 20 hours. The standardization of the pathogen suspension was effected by using a photometer according to "Eppendorf" (test tube dismeter 14 mm, filter 546 nm) with the aid of the turbidity of a comparison suspension consisting of barium sulfate, this suspension being prepared by addition of 3.0 ml of 1% barium chloride solution to 97 ml of 1% sulfuric acid. After the standardization, streptococcus aronson were further diluted to a concentration of 1:15 and the other microorganisms to a concentration of 1:1500 by means of a sodium chloride solution.
(§2) 16 mg of the test substance were put into a 10 ml-measuring flask and filled up to the mark with the solvent. The further dilution series was standardized with distilled water or the respective solvent.
(§3) The cavities of the microtiter plates were filled with 0.2 ml of nutrient medium. Then, 0.01 ml of the corresponding test substance dilution was added and inoculated with 0.01 ml of the standardized suspension. The bacteria were incubated at 37° C. for 18-20 hours. Control tests merely using the solvent were carried out simultaneously.
(§4) The measurement was carried out macroscopically to determine the minimal inhibitory (threshold) concentration, i.e. the lower still bacteriostatically effective concentration.
(§5) Staphylococcus aureus SG 511, Escherichia coli ATCC 11 775, Pseudomonas aeruginosa Hamburgensis and Pseudomonas aeruginosa Walter, Serratia marcescens ATCC 13880, Klebsiella pneumoniae ATCC 10 031 and 272, Proteus mirabilis Hamburgensis, Proteus rettgeri, Enterbacter cloaceae ATCC 13 047 and E. Coli R+TEM (β-lactamase carrier).

Proteus rettgeri = assay: Serial dilution test in the microtiter system (MIC), Prot. rettgeri; assay type: cell-based; settings: Providencia rettgeri; Table IV; Prot. rettg.; 37° C., 18-20 hours; read-out: MIC
Experimental: as §1, §2, §3, §4, §5

E. coli ATCC 11775 = assay: In vivo activity in mice, E. coli infection; parameters: species or system Female NMRI mice; settings: Escherichia coli, ATCC11775, iPSC, sc, 168 h; E. coli infection i.p.; s.c. administration; per dose; observation 7 days; read-out: ED50 (dose at which 50% of the animals survived)
Experimental: (§6) A number of compounds of this invention were tested in vivo in mice against experimental infections. Bacteria E. coli ATCC 11775 and Psuedomonas aeruginosa Walter were used as pathogens. An intraperitoneal infection with 0.2 ml of a 5% suspension of the bacteria was induced. This corresponds to about 2×10^6 E. Coli germs and 8×10^5 pseudomonas germs/mouse. […] The groups with E. coli infection were treated with the test compound three times on the first day (1, 4, and 7 hours post infectionem) and for two days thereafter twice a day. The groups with the pseudomonas infection were treated with the test compound 6 times on the first day (1, 3, 6, 9, 12 and 15 hours post infectionem) and for two days thereafter twice a day. The observation time was in both cases 7 days. The results of these tests with representatives of the penicillins and cephalosporins according to the invention are shown in the following table: […]

[2] = test system: Psuedomonas aeruginosa Walter; assay: In vivo activity in mice, Pseudomonas infection; parameters: species or system Female NMRI mice; settings: for ED50: Mus musculus, iPSC, sc, 168 h, Pseudomonas infection i.p., s.c. administration, per dose, observation 7 days, read-out: ED50 (dose at which 50% of the animals survived)
Experimental: as §6

[3] = test system: Serratia marcescens ATCC 13880; assay: Serial dilution test in the microtiter system (MIC), Serrat. marcesc. ATCC 13880; assay type: cell-based; settings: ATCC13880, Table IV, Serr. marcesc. ATCC 13880, 37° C., 18-20 hours, read-out: MIC
Experimental: as §1, §2, §3, §4, §5

[4] = test system: Proteus mirabilis Hamburgensis; assay: Serial dilution test in the microtiter system (MIC), Prot. mirabilis; assay type: cell-based; settings: Table IV, Prot. mir. Hbg., 37° C., 18-20 hours, read-out: MIC
Experimental: as §1, §2, §3, §4, §5

[5] = test system: Klebsiella pneumoniae 272; assay: Serial dilution test in the microtiter system (MIC), Klebs. pneum. 272; assay type: cell-based
Experimental: as §1, §2, §3, §4, §5

[6] = test system: Escherichia coli ATCC 11 775; assay: Serial dilution test in the microtiter system (MIC), E. Coli ATCC 11775; assay type: cell-based; settings: Table IV, E. Coli ATCC 11775, 37° C., 18-20 hours, read-out: MIC
Experimental: as §1, §2, §3, §4, §5

[7] = test system: Enterbacter cloaceae ATCC 13 047; assay: Serial dilution test in the microtiter system (MIC), Eb. cloaceae ATCC 13047; assay type: cell-based; settings: Table IV; Eb. cloaceae; 37° C., 18-20 hours; read-out: MIC
Experimental: as §1, §2, §3, §4, §5

[8] = test system: Klebsiella pneumoniae ATCC 10 031; assay: Serial dilution test in the microtiter system (MIC), Klebs. pneum. ATCC 10031; assay type: cell-based
Experimental: as §1, §2, §3, §4, §5

[9] = test system: Pseudomonas aeruginosa Hamburgensis; assay: Serial dilution test in the microtiter system (MIC), Pseud. aerug. Hbg.; assay type: cell-based
Experimental: as §1, §2, §3, §4, §5

[10] = test system: Pseudomonas aeruginosa Walter; assay: Serial dilution test in the microtiter system (MIC), Pseud. aerug. Walter; assay type: cell-based
Experimental: as §1, §2, §3, §4, §5

[11] = Table IV, Klebs. pneum. ATCC 10031, 37° C., 18-20 hours, read-out: MIC
[12] = Table IV, Klebs. pneum. 272, 37° C., 18-20 hours, read-out: MIC

Compound | MIC [1] [µg/mL] | MIC (Proteus rettgeri) [µg/mL] | ED50 (E. coli ATCC 11775) [mg/kg] | ED50 [2] [mg/kg] | animals died ([2]; Pseudomonas infection, s.c., at 200 mg/kg) | MIC [3] [µg/mL] | MIC [4] [µg/mL] | MIC [5]; 272 [µg/mL] | MIC [6] [µg/mL] | MIC [7] [µg/mL] | MIC [8, 11] [µg/mL] | MIC [5, 12] [µg/mL] | MIC [9] [µg/mL] | MIC [10] [µg/mL] | MIC [8] [µg/mL]
CO/N=C(\C(=O)N[C@@H]1C(=O)N2C(C(=O)O)=C(COC(N)=O)CS[C@H]12)c1ccco1 [Cefuroxim, reference compound] | 1 (≈ 2.36 µM) | 2 (≈ 4.71 µM) | 37 | > 200 | all animals died | 8 (≈ 18.9 µM) | 0.5 (≈ 1.18 µM) | 4 (≈ 9.43 µM) | 8 (≈ 18.9 µM) | 32 (≈ 75.4 µM) | 2 (≈ 4.71 µM) | – | – | – | –
Cn1nnnc1SCC1=C(C(=O)O)N2C(=O)[C@@H](NC(=O)[C@H](NC(=O)Nc3cnc(NCc4ccco4)nc3O)c3ccc(O)cc3)[C@H]2SC1 [J] | 0.5 (≈ 0.704 µM) | 0.5 (≈ 0.704 µM) | 0.3 | 6.3 | – | 0.25 (≈ 0.352 µM) | 0.12 (≈ 0.169 µM) | – | 0.25 (≈ 0.352 µM) | 0.5 (≈ 0.704 µM) | 0.5 (≈ 0.704 µM) | 0.5 (≈ 0.704 µM) | 8 (≈ 11.3 µM) | 4 (≈ 5.64 µM) | –
Cn1nnnc1SCC1=C(C(=O)O)N2C(=O)[C@@H](NC(=O)[C@H](NC(=O)Nc3cnc(NCc4cccnc4)nc3O)c3ccc(O)cc3)[C@H]2SC1 [L] | 0.5 (≈ 0.694 µM) | 0.5 (≈ 0.694 µM) | 0.2 | 4.6 | – | 0.25 (≈ 0.347 µM) | – | – | – | 0.25 (≈ 0.347 µM) | – | 0.25 (≈ 0.347 µM) | – | – | 0.25 (≈ 0.347 µM)
Cn1nnnc1SCC1=C(C(=O)O)N2C(=O)[C@@H](NC(=O)[C@H](NC(=O)Nc3cnc(NCc4cccs4)nc3O)c3ccc(O)cc3)[C@H]2SC1 [N] | 0.5 (≈ 0.689 µM) | 0.5 (≈ 0.689 µM) | 0.6 | – | – | 0.25 (≈ 0.344 µM) | 0.12 (≈ 0.165 µM) | – | 0.25 (≈ 0.344 µM) | 0.25 (≈ 0.344 µM) | 0.25 (≈ 0.344 µM) | 0.25 (≈ 0.344 µM) | 8 (≈ 11 µM) | 4 (≈ 5.51 µM) | –
Cn1nnnc1SCC1=C(C(=O)O)N2C(=O)[C@@H](NC(=O)[C@H](NC(=O)Nc3cnc(Nc4ccc([S+](C)[O-])nc4)nc3O)c3ccc(O)cc3)[C@H]2SC1 (some centres unmarked) [O] | 0.25 (≈ 0.325 µM) | 0.5 (≈ 0.65 µM) | – | – | – | 0.5 (≈ 0.65 µM) | 0.12 (≈ 0.156 µM) | – | 0.25 (≈ 0.325 µM) | 0.5 (≈ 0.65 µM) | 0.25 (≈ 0.325 µM) | 0.25 (≈ 0.325 µM) | 4 (≈ 5.2 µM) | 4 (≈ 5.2 µM) | –
Cc1ncc(CNc2ncc(NC(=O)N[C@@H](C(=O)N[C@@H]3C(=O)N4C(C(=O)O)=C(CSc5nnnn5C)CS[C@H]34)c3ccc(O)cc3)c(O)n2)cn1 [P] | 0.25 (≈ 0.34 µM) | 0.25 (≈ 0.34 µM) | – | – | – | 0.25 (≈ 0.34 µM) | 0.06 (≈ 0.0815 µM) | – | 0.12 (≈ 0.163 µM) | 0.5 (≈ 0.68 µM) | 0.25 (≈ 0.34 µM) | 0.5 (≈ 0.68 µM) | 4 (≈ 5.44 µM) | 4 (≈ 5.44 µM) | –
